Test results: patent US8053603B2, “Tetralone-based monoamine reuptake inhibitors” (Sunovion Pharmaceuticals Inc., priority 2006, dated 2011)
Where two headings read alike, the source gives them in different places.

Tests used:
Type in all cases: cell-based
[1] = target: T1, recombinant human norepinephrine transporter (Homo sapiens, UniProt P23975); assay: Norepinephrine functional uptake assay for human reuptake transporter; details: [3H]norepinephrine uptake, HEK293 or MDCK cells expressing human norepinephrine transporter
T1 construct: expressed in transfected cells; host or cells: HEK293 or MDCK
Experimental: Norepinephrine Functional Uptake Assay for Human Reuptake Transporter
The cells were plated before the assay. Test compound and/or vehicle was preincubated with cells in modified HEPES buffer pH 7.1 or pH 7.4 for 20 minutes at 18 to 25° C. . […] After the cells were washed to remove [^3H]norepinephrine not internalized, the cells were lysed, and the amount of tritium in the cell lysate was measured using a liquid scintillation counter to determine [^3H]norepinephrine uptake. Non-specific binding of tritium was measured in a control reaction containing 10 μM imipramine (or 10 μM nisoxetine), and was subtracted from the counts for assays to correct for non-specific binding of tritium. Reduction of [^3H]norepinephrine uptake by 50 percent or more (≧50%) relative to an uninhibited control reaction indicates significant inhibitory activity.

[2] = target: T2, recombinant human dopamine transporter (Homo sapiens, UniProt Q01959); assay: Dopamine functional uptake assay for human reuptake transporter
T2 construct: expressed in transfected cells; host or cells: CHO-K1 or HEK293
Experimental: Dopamine Functional Uptake Assay for Human Reuptake Transporter
Either CHO-K1 or HEK293 cells expressing human recombinant dopamine transporter were plated before the assay. Test compound and/or vehicle was preincubated with cells in modified HEPES buffer pH 7.1 or pH 7.4 for 20 minutes at 18 to 25° C. and 50 nM [^3H]dopamine was then added for an additional timed incubation period (10 to 30 minutes). After washing the cells to remove [^3H]dopamine not internalized, the cells were lysed, and the amount of tritium in the lysate was measured using a liquid scintillation counter to determine [^3H]dopamine uptake. Non-specific binding of tritium was measured in a control reaction containing 10 μM nomifensine, and was subtracted from the counts for assays to correct for non-specific binding of tritium. Reduction of [^3H]dopamine uptake by 50 percent or more (≧50%) relative to an uninhibited control reaction indicates significant inhibitory activity.

[3] = target: T3, recombinant human serotonin transporter (Homo sapiens, UniProt P31645); assay: Serotonin functional uptake assay for human reuptake transporter; details: [3H]serotonin uptake, HEK-293 cells expressing human serotonin transporter; read-out: Human IC50 (nM) SERT
T3 construct: expressed in transfected cells; host or cells: HEK-293
Experimental: Serotonin Functional Uptake Assay for Human Reuptake Transporter
HEK-293 cells expressing human serotonin transporter were plated before the assay. […] Cells with internalized [^3H]serotonin were washed and the amount of tritium taken into cells is counted using a liquid scintillation counter to determine [^3H]serotonin uptake.

[4] = [3H]dopamine uptake, CHO-K1 or HEK293 cells expressing human dopamine transporter, read-out: Human IC50 (nM) DAT

T2 sequence (Q01959 whole entry): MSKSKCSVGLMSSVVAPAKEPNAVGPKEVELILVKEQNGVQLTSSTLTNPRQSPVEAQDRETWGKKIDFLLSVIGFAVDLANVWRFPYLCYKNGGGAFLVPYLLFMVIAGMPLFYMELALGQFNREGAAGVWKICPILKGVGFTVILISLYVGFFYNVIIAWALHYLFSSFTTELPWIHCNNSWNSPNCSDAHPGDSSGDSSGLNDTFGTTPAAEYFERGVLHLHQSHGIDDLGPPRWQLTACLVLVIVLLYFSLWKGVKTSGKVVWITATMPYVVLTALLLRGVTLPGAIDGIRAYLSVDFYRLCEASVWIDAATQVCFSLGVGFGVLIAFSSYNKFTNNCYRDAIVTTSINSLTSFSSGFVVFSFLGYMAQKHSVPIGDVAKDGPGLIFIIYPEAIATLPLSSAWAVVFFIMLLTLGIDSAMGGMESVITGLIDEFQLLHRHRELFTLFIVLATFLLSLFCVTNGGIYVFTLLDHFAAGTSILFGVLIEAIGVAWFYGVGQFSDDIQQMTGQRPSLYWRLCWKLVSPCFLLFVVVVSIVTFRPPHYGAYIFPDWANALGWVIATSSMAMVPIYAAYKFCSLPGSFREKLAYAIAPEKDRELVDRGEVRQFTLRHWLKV
T1 sequence (P23975 whole entry): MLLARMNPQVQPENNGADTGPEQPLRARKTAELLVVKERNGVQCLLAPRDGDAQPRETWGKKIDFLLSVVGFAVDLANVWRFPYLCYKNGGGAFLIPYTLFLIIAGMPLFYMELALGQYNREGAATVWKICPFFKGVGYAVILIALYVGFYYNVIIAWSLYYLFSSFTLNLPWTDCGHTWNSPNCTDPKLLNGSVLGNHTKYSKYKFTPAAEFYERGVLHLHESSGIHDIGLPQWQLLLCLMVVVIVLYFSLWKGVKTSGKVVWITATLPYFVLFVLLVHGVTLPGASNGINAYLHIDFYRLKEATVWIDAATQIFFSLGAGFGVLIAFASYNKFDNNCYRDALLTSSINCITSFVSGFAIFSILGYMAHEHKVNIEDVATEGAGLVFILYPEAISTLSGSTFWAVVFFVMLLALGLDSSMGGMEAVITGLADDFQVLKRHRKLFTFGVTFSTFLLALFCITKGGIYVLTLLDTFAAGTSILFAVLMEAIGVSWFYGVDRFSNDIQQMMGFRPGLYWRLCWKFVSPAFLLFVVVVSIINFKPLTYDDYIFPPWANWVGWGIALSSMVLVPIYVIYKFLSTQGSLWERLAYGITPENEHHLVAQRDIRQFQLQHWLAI
T3 sequence (P31645 whole entry): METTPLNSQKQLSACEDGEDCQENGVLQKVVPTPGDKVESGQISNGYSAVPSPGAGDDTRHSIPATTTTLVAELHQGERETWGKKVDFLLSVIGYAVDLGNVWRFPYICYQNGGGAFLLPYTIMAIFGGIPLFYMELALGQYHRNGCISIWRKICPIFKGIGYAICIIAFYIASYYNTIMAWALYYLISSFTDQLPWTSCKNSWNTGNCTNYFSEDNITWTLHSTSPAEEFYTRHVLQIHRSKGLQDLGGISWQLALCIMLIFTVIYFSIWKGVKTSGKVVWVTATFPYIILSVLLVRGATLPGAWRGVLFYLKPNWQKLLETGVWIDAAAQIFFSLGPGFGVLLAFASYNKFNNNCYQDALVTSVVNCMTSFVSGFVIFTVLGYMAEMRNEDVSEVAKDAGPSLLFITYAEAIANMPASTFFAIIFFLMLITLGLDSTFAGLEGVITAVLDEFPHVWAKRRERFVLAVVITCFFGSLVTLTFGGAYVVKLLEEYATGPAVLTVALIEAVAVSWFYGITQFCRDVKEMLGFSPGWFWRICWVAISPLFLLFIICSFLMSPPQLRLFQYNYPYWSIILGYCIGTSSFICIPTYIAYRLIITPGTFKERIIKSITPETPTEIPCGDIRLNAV

N[C@H]1Cc2ccccc2[C@H](c2ccc(Cl)c(Cl)c2)C1 (single isomer, unassigned) [Compound 6b, [4-(3,4-dichlorophenyl)-1,2,3,4-tetrahydro-naphthalen-2-yl]-amine]
IC50 ([1]; Human IC50 (nM) NET): 731 nM | IC50 ([2]; Human IC50 (nM) DAT): 408 nM

N[C@H]1Cc2ccccc2[C@H](c2ccc(Cl)c(Cl)c2)C1 (single isomer, unassigned) [Compound 6c, [4-(3,4-dichlorophenyl)-1,2,3,4-tetrahydro-naphthalen-2-yl]-amine]
IC50 ([1]; Human IC50 (nM) NET): 855 nM | IC50 ([2]; Human IC50 (nM) DAT): 894 nM

N[C@H]1Cc2ccccc2[C@H](c2ccc(Cl)c(Cl)c2)C1 (single isomer, unassigned) [Compound 6d, [4-(3,4-dichlorophenyl)-1,2,3,4-tetrahydro-naphthalen-2-yl]-amine]
IC50 ([1]; Human IC50 (nM) NET): 174 nM | IC50 ([2]; Human IC50 (nM) DAT): 175 nM

CN[C@H]1Cc2ccccc2[C@H](c2ccc(Cl)c(Cl)c2)C1 (single isomer, unassigned) [Compound 7b, 4-(3,4-dichlorophenyl)-N-methyl-1,2,3,4-tetrahydronaphthalen-2-amine]
IC50 [2, 4]: 62 nM

CN[C@H]1Cc2ccccc2[C@H](c2ccc(Cl)c(Cl)c2)C1 (single isomer, unassigned) [Compound 7c, 4-(3,4-dichlorophenyl)-N-methyl-1,2,3,4-tetrahydronaphthalen-2-amine]
IC50 [2, 4]: 281 nM

CN[C@H]1Cc2ccccc2[C@H](c2ccc(Cl)c(Cl)c2)C1 (single isomer, unassigned) [Compound 7d, 4-(3,4-dichlorophenyl)-N-methyl-1,2,3,4-tetrahydronaphthalen-2-amine]
IC50 [2, 4]: 72 nM

CN(C)[C@H]1Cc2ccccc2[C@H](c2ccc(Cl)c(Cl)c2)C1 (single isomer, unassigned) [Compound 8b, [4-(3,4-dichlorophenyl)-1,2,3,4-tetrahydro-naphthalen-2-yl]-dimethylamine]
IC50 ([1]; Human IC50 (nM) NET): 174 nM | IC50 [2, 4]: 176 nM

CN(C)[C@H]1Cc2ccccc2[C@H](c2ccc(Cl)c(Cl)c2)C1 (single isomer, unassigned) [Compound 8c, [4-(3,4-dichlorophenyl)-1,2,3,4-tetrahydro-naphthalen-2-yl]-dimethylamine]
IC50 ([1]; Human IC50 (nM) NET): 164 nM | IC50 [2, 4]: 273 nM

CN(C)[C@H]1Cc2ccccc2[C@H](c2ccc(Cl)c(Cl)c2)C1 (single isomer, unassigned) [Compound 8d, [4-(3,4-dichlorophenyl)-1,2,3,4-tetrahydro-naphthalen-2-yl]-dimethylamine]
IC50 ([1]; Human IC50 (nM) NET): 98 nM | IC50 [2, 4]: 319 nM

CNC[C@H]1Cc2ccccc2[C@H](c2ccc(Cl)c(Cl)c2)C1 (single isomer, unassigned) [Compound 15b, [4-(3,4-dichlorophenyl)-1,2,3,4-tetrahydro-naphthalen-2-ylmethyl]-methylamine]
IC50 ([1]; Human IC50 (nM) NET): 126 nM | IC50 [2, 4]: 103 nM

CNC[C@H]1Cc2ccccc2[C@H](c2ccc(Cl)c(Cl)c2)C1 (single isomer, unassigned) [Compound 15c, [4-(3,4-dichlorophenyl)-1,2,3,4-tetrahydro-naphthalen-2-ylmethyl]-methylamine]
IC50 ([1]; Human IC50 (nM) NET): 210 nM | IC50 [2, 4]: 111 nM

CNC[C@H]1Cc2ccccc2[C@H](c2ccc(Cl)c(Cl)c2)C1 (single isomer, unassigned) [Compound 15d, [4-(3,4-dichlorophenyl)-1,2,3,4-tetrahydro-naphthalen-2-ylmethyl]-methylamine]
IC50 ([1]; Human IC50 (nM) NET): 372 nM | IC50 [2, 4]: 484 nM

CN(C)CC1Cc2ccccc2C(c2ccc(Cl)c(Cl)c2)C1 (single isomer, unassigned) [Compound 16a, [4-(3,4-dichlorophenyl)-1,2,3,4-tetrahydro-naphthalen-2-ylmethyl]-dimethylamine]
IC50 ([1]; Human IC50 (nM) NET): 565 nM

CN(C)CC1Cc2ccccc2C(c2ccc(Cl)c(Cl)c2)C1 (single isomer, unassigned) [Compound 16b, [4-(3,4-dichlorophenyl)-1,2,3,4-tetrahydro-naphthalen-2-ylmethyl]-dimethylamine]
IC50 ([1]; Human IC50 (nM) NET): 309 nM

CN(C)C1CC(c2ccc(Cl)c(Cl)c2)c2ccccc2C1O (single isomer, unassigned) [Compound 23a, 4-(3,4-dichlorophenyl)-2-(dimethylamino)-1,2,3,4-tetrahydronaphthalen-1-ol]
IC50 ([1]; read-out: Human IC50 (nM) NET): 710 nM | IC50 [2, 4]: 371 nM | IC50 [3]: 117 nM

CN(C)C1CC(c2ccc(Cl)c(Cl)c2)c2ccccc2C1O (single isomer, unassigned) [Compound 23b, 4-(3,4-dichlorophenyl)-2-(dimethylamino)-1,2,3,4-tetrahydronaphthalen-1-ol]
IC50 ([1]; Human IC50 (nM) NET): 48 nM | IC50 [2, 4]: 67 nM | IC50 [3]: 1300 nM

CN(C)C1CC(c2ccc(Cl)c(Cl)c2)c2ccccc2C1O (single isomer, unassigned) [Compound 23c, 4-(3,4-dichlorophenyl)-2-(dimethylamino)-1,2,3,4-tetrahydronaphthalen-1-ol]
IC50 ([1]; Human IC50 (nM) NET): 36 nM | IC50 [2, 4]: 21 nM | IC50 [3]: 2360 nM

CN(C)C1CC(c2ccc(Cl)c(Cl)c2)c2ccccc2C1O (single isomer, unassigned) [Compound 23d, 4-(3,4-dichlorophenyl)-2-(dimethylamino)-1,2,3,4-tetrahydronaphthalen-1-ol]
IC50 ([1]; Human IC50 (nM) NET): 65 nM | IC50 [2, 4]: 48 nM | IC50 [3]: 48 nM

CN[C@H]1Cc2ccc(OC)cc2[C@@H](c2ccc(Cl)c(Cl)c2)C1 (single isomer, unassigned) [Compound 32a.1, 4-(3,4-dichlorophenyl)-6-methoxy-N-methyl-1,2,3,4-tetrahydronaphthalen-2-amine]
IC50 ([1]; read-out: Human IC50 (nM) NET): 1210 nM | IC50 [2, 4]: 1080 nM | IC50 [3]: 162 nM

CN[C@H]1Cc2ccc(OC)cc2[C@@H](c2ccc(Cl)c(Cl)c2)C1 (single isomer, unassigned) [Compound 32a.2, 4-(3,4-dichlorophenyl)-6-methoxy-N-methyl-1,2,3,4-tetrahydronaphthalen-2-amine]
IC50 ([1]; read-out: Human IC50 (nM) NET): 467 nM | IC50 [2, 4]: 415 nM | IC50 [3]: 130 nM

CN[C@H]1Cc2ccc(OC)cc2[C@@H](c2ccc(Cl)c(Cl)c2)C1 (single isomer, unassigned) [Compound 32a.4, 4-(3,4-dichlorophenyl)-6-methoxy-N-methyl-1,2,3,4-tetrahydronaphthalen-2-amine]
IC50 ([1]; read-out: Human IC50 (nM) NET): 786 nM | IC50 [2, 4]: 1680 nM | IC50 [3]: 958 nM

CN[C@H]1CCc2ccccc2[C@H]1c1ccc(Cl)c(Cl)c1 (single isomer, unassigned) [Compound 36a, 1-(3,4-dichlorophenyl)-N-methyl-1,2,3,4-tetrahydronaphthalen-2-amine]
IC50 ([1]; read-out: Human IC50 (nM) NET): 3450 nM | IC50 [2, 4]: 511 nM

CN[C@H]1CCc2ccccc2[C@H]1c1ccc(Cl)c(Cl)c1 (single isomer, unassigned) [Compound 36b, 1-(3,4-dichlorophenyl)-N-methyl-1,2,3,4-tetrahydronaphthalen-2-amine]
IC50 ([1]; read-out: Human IC50 (nM) NET): 7090 nM

CN[C@H]1CCc2ccccc2[C@H]1c1ccc(Cl)c(Cl)c1 (single isomer, unassigned) [Compound 36c, 1-(3,4-dichlorophenyl)-N-methyl-1,2,3,4-tetrahydronaphthalen-2-amine]
IC50 ([1]; read-out: Human IC50 (nM) NET): 745 nM | IC50 [2, 4]: 88 nM

CN[C@H]1CCc2ccccc2[C@H]1c1ccc(Cl)c(Cl)c1 (stereo in doubt) [Compound 36d, 1-(3,4-dichlorophenyl)-N-methyl-1,2,3,4-tetrahydronaphthalen-2-amine]
IC50 ([1]; read-out: Human IC50 (nM) NET): 1620 nM | IC50 [2, 4]: 204 nM

N[C@H]1Cc2ccccc2[C@H](c2ccc(Cl)c(Cl)c2)C1 [Compound 6a, [4-(3,4-dichlorophenyl)-1,2,3,4-tetrahydro-naphthalen-2-yl]-amine]
IC50 ([1]; read-out: Human IC50 (nM) NET): 124 nM | IC50 ([2]; read-out: Human IC50 (nM) DAT): 350 nM

CN[C@H]1Cc2ccccc2[C@H](c2ccc(Cl)c(Cl)c2)C1 [Compound 7a, 4-(3,4-dichlorophenyl)-N-methyl-1,2,3,4-tetrahydronaphthalen-2-amine]
IC50 [2, 4]: 114 nM

CN(C)[C@H]1Cc2ccccc2[C@H](c2ccc(Cl)c(Cl)c2)C1 [Compound 8a, [4-(3,4-dichlorophenyl)-1,2,3,4-tetrahydro-naphthalen-2-yl]-dimethylamine]
IC50 ([1]; read-out: Human IC50 (nM) NET): 167 nM | IC50 [2, 4]: 454 nM

CNC[C@H]1Cc2ccccc2[C@H](c2ccc(Cl)c(Cl)c2)C1 [Compound 15a, [4-(3,4-dichlorophenyl)-1,2,3,4-tetrahydro-naphthalen-2-ylmethyl]-methylamine]
IC50 ([1]; read-out: Human IC50 (nM) NET): 72 nM | IC50 [2, 4]: 125 nM
